Results: patent US11642336B2, “5-HT2A agonists for use in treatment of depression” (priority 2019, dated 2023)
Where two headings read alike, the source gives them in different places.

Columns and labels:
[1] = system: Flinders Sensitive Line (FSL) rats; experiment: forced swim test, Flinders Sensitive Line (FSL) model; format: in vivo; conditions: one hour after i.p. administration, vs vehicle-treated FSL rats, FIG. 3
Protocol: Male Flinders line rats (Flinders Sensitive Line (FSL) and their control Flinders Resistant Line (FRL); 9-11 weeks of age; 228-336 g) from the colony maintained at (TNU), Aarhus University (originally derived from the colony at the University of North Carolina, USA) were housed in pairs (Cage 1291H Eurostandard Type III H, 425×266×185 mm, Techniplast, Buguggiate, Italy) at 20±2° C. on a 12-h light/dark cycle (lights on at 07:00 am). The animals had ad libitum access to chow pellets and tap water. The animal colony was protected from outside noise, and all experimental procedures were performed in specially equipped rooms within the vivarium. […]
The following groups were included in the experiment: FRL-vehicle (n=10), FSL-vehicle (n=10), FSL-ketamine (15 mg/kg S-ketamine, Pfizer) (n=8), and FSL-compound 8 (1.5 mg/kg) (n=10). […] A camera, located directly above the center of the field, recorded the session and the total distance moved was quantified using EthoVision XT video tracking software (version 11.0.928; Noldus Information Technology, Wageningen, The Netherlands).
The rat was placed in an acrylic plastic cylinder (60 cm in height, 24 cm in diameter) containing 40 cm of water (25±1° C.) for 7 min. A camera, located directly in front of the cylinder, recorded the session. […]

5-HT2C [2] = molecular target: T1, 5-HT2C (Homo sapiens (Human), UniProt P28335); experiment: IP assay (Eurofins, IP1 HTRF), HEK293 cells; format: cell-based; conditions: for 5-HT2C Rmax (%): % of Rmax of 5-HT
Target sequence in this assay (P28335 whole entry, looked up): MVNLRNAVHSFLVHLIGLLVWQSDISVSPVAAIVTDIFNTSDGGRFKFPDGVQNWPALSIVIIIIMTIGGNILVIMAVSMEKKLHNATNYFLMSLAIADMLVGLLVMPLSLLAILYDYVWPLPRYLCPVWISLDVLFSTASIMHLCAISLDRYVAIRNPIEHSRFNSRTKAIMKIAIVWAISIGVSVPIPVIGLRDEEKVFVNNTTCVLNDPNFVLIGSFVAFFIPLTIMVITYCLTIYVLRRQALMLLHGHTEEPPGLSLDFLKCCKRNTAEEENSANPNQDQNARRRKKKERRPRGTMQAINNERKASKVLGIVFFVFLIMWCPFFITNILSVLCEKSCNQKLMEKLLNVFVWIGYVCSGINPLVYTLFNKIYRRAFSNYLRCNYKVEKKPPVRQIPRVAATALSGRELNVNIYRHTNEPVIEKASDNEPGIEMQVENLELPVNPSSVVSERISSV
Protocol: (§1) The agonist properties of the compounds were characterized at HEK293 cell lines expressing the human 5-HT2A, human 5-HT2B or human 5-HT2C receptors in an IP assay essentially as previously described.^19 The testing was performed by Eurofins. In the assay, the agonist activity of the compound at the receptors is investigated by measuring its effect on IP1 production in the cell using the Homogeneous Time Resolved Fluorescence (HTRF) detection method. […] Following incubation, the cells were lysed, and the fluorescence acceptor (D2-labeled IP1) and fluorescence donor (anti-IP1 antibody labeled with europium cryptate) were added. […] The test compounds were characterized in eight different concentrations in duplicate at each of the three cell lines.

human 5-HT2A [3] = molecular target: T2, human 5-HT2A (Homo sapiens (Human), UniProt P28223); experiment: cell-based; format: cell-based; conditions: IP assay; for 5-HT2A Rmax: % of Rmax of 5-HT; for EC50: duplicate determinations; for agonist response at 5-HT2A: concentrations up to 100 μM
5-HT2B [4] = molecular target: T3, 5-HT2B (Homo sapiens (Human), UniProt P41595); experiment: IP assay (Eurofins, IP1 HTRF), HEK293 cells; format: cell-based; conditions: for EC50: duplicate determinations; for 5-HT2B Rmax: % of Rmax of 5-HT
Target sequence in this assay (P41595 whole entry, looked up): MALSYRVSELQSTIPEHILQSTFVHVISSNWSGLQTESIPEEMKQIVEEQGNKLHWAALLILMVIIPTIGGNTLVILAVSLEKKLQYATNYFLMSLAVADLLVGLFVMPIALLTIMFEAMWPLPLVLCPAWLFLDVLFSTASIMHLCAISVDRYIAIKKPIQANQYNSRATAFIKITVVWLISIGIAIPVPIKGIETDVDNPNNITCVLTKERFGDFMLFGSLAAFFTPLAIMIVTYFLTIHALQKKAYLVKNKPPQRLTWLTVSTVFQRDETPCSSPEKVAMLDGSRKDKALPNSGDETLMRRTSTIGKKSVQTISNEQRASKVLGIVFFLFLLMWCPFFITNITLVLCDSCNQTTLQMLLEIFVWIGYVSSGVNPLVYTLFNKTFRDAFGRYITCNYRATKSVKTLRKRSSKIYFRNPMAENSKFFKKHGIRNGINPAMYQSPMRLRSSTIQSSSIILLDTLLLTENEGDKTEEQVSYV
Protocol: as §1

a1A = a1A (Homo sapiens (Human), UniProt P35348); experiment: radioligand competition binding assay (Psychiatric Drug Screening Program); conditions: read-out: Ki (nM) a1A
5-HT2C [5] = molecular target: T1, 5-HT2C; experiment: biochemical; format: binding
Target sequence in this assay (P28335 33-458 limits assumed): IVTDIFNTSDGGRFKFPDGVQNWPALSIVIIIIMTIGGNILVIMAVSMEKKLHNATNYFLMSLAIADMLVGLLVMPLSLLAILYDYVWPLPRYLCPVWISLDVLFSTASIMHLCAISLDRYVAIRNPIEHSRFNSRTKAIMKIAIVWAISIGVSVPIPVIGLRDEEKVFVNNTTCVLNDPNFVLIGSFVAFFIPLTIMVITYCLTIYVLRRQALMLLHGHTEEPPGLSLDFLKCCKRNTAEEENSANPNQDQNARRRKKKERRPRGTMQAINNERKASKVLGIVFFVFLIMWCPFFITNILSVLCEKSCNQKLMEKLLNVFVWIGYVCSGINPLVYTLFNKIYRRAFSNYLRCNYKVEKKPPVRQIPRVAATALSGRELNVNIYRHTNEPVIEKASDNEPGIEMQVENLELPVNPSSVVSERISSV

a2C = a2C (Homo sapiens (Human), UniProt P18825); experiment: radioligand competition binding assay (Psychiatric Drug Screening Program)
human 5-HT2A [6] = molecular target: T2, human 5-HT2A; experiment: cell-based; format: cell-based; conditions: for 5-HT2A Rmax ± S.E.M: % of the Rmax of 5-HT; for agonist response at 5-HT2A / Selectivity EC50 5-HT2C/EC50 5-HT2A: Ca2+/Fluo-4 assay; for agonist response at 5-HT2A: concentrations up to 50 μM; for Selectivity EC50 5-HT2C/EC50 5-HT2A: bounds are conservative estimates
5-HT2B [7] = molecular target: T3, 5-HT2B; experiment: fluorescence-based Ca2+ imaging assay (Eurofins), stable h5-HT2B cell line
Target sequence in this assay (P41595 whole entry): as the sequence (P41595 whole entry, looked up) above
Protocol: Briefly, the cell line was expanded from a freezer stock according to standard procedures. […] Cells were loaded with dye prior to testing. Media was aspirated from cells and replaced with 20 μL Dye Loading Buffer, and the cells were incubated for 30-60 minutes at 37° C. After dye loading, cells were removed from the incubator and 10 μL HBSS/20 mM HEPES was added. Cells were incubated for 30 minutes at room temperature in the dark to equilibrate plate temperature. Intermediate dilution of sample stocks was performed to generate 4× sample in assay buffer. Compound agonist activity was measured on a FLIPR Tetra (MDS). Calcium mobilization was monitored for 2 minutes and 10 μL 4× sample in HBSS/20 mM HEPES was added to the cells 5 seconds into the assay.

a2B = a2B (Homo sapiens (Human), UniProt P18089); experiment: radioligand competition binding assay (Psychiatric Drug Screening Program)
5-HT6 = 5-HT6 (Homo sapiens (Human), UniProt P50406); experiment: as above
5-HT2C [8] = molecular target: T1, 5-HT2C; experiment: Ca2+/Fluo-4 assay, stable h5-HT2C-HEK293 cell line; format: cell-based; conditions: for EC50: agonist potency, n = 3-4;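 as to all read-outs here: Agonist-induced intracellular Ca2+ rise read by Fluo-4 fluorescence in HEK293 cells stably expressing the human 5-HT2C receptor, each compound run in duplicate on three or more occasions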
Target sequence in this assay (P28335 whole entry, looked up): as the sequence (P28335 whole entry, looked up) above

a1B = a1B (Homo sapiens (Human), UniProt P35368); experiment: radioligand competition binding assay (Psychiatric Drug Screening Program); conditions: read-out: Ki (nM) a1B
5-HT2B [9] = molecular target: T3, 5-HT2B; experiment: as above
Target sequence in this assay (P41595 whole entry, looked up, species assumed): as the sequence (P41595 whole entry, looked up) above

5-HT1D = 5-HT1D (Homo sapiens (Human), UniProt P28221); experiment: as above; conditions: read-out: Ki (nM) 5-HT1D
5-HT1e = 5-HT1e (Homo sapiens (Human), UniProt P28566); experiment: as above
5-HT1A = 5-HT1A (Homo sapiens (Human), UniProt P08908); experiment: as above
a2A = a2A (Homo sapiens (Human), UniProt P08913); experiment: as above; conditions: read-out: Ki (nM) a2A
5-HT7 = 5-HT7 (Homo sapiens (Human), UniProt P34969); experiment: as above
5-HT2A over 5-HT2C = conditions: cited from earlier work
[10] = IP assay, duplicate determinations, read-out: 5-HT2C EC50
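For 5-HT2B agonist activity (n.a./w.a.) in this document: agonist effect read as cellular IP1 production by HTRF using a europium cryptate anti-IP1 antibody donor and D2-labeled IP1 acceptor, eight compound concentrations in each cell line.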

a2A, sequence (P08913 whole entry, looked up): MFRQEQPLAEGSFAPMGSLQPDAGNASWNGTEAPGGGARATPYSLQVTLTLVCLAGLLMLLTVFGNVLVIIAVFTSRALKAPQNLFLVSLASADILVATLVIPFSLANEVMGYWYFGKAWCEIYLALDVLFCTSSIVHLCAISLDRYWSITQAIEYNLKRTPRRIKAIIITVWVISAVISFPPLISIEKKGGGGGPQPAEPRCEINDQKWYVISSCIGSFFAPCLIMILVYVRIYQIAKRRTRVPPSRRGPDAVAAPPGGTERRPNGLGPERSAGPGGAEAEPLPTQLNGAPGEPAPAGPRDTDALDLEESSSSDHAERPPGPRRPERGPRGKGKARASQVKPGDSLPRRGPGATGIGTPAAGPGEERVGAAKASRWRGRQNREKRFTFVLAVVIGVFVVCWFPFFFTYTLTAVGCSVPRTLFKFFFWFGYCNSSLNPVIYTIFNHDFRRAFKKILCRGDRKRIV
a2C, sequence (P18825 whole entry, looked up): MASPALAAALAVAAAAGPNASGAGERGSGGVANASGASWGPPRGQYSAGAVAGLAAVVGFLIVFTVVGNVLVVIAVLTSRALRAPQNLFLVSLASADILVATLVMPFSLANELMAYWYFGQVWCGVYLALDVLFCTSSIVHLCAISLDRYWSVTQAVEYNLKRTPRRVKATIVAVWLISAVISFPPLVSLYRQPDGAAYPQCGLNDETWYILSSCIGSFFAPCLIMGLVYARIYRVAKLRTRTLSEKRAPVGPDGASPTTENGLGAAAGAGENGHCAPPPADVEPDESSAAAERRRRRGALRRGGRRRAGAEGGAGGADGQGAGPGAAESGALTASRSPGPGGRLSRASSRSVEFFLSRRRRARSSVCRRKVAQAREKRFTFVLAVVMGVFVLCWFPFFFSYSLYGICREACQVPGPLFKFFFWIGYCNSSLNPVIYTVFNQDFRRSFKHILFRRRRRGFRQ
a1B, sequence (P35368 whole entry, looked up): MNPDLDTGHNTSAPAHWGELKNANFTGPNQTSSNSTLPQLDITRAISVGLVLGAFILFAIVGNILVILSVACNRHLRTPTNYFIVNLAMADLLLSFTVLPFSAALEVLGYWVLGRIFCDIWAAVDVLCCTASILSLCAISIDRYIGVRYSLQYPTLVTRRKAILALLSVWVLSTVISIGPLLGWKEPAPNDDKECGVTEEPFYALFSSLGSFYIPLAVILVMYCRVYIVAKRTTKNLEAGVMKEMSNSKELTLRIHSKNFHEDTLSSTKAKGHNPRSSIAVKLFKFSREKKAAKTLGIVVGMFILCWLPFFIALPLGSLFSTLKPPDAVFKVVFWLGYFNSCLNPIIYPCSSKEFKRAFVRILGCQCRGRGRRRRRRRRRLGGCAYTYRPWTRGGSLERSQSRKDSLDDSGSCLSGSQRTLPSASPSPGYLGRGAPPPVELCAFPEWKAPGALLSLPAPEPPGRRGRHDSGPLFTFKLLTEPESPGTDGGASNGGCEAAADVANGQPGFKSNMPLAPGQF
5-HT7, sequence (P34969 whole entry, looked up, species assumed): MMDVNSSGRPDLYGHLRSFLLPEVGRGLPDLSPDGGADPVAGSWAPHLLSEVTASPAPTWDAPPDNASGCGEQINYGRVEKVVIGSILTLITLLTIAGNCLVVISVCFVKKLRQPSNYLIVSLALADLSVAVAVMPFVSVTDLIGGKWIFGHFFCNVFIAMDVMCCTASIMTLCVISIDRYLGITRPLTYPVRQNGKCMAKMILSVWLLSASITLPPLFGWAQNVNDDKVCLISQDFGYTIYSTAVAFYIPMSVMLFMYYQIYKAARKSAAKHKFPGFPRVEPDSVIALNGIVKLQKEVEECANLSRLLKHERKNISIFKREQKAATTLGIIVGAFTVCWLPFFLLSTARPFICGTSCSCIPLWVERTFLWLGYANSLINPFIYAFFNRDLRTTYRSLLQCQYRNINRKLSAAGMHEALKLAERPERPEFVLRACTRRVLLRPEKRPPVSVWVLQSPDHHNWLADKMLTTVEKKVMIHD
a1A, sequence (P35348 whole entry, looked up): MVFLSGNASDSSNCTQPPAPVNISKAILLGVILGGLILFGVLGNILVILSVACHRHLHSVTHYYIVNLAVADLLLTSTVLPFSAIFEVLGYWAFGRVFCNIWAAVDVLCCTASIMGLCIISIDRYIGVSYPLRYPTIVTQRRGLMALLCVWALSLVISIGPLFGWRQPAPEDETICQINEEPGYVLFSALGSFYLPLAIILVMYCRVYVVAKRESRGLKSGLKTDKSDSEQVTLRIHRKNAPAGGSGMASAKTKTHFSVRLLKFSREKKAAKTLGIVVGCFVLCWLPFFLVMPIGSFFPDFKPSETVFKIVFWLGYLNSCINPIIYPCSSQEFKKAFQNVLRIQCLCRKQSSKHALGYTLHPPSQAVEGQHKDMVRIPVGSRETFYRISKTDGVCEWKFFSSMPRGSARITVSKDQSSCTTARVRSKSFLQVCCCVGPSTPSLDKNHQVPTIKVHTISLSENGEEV
5-HT6, sequence (P50406 whole entry, looked up, species assumed): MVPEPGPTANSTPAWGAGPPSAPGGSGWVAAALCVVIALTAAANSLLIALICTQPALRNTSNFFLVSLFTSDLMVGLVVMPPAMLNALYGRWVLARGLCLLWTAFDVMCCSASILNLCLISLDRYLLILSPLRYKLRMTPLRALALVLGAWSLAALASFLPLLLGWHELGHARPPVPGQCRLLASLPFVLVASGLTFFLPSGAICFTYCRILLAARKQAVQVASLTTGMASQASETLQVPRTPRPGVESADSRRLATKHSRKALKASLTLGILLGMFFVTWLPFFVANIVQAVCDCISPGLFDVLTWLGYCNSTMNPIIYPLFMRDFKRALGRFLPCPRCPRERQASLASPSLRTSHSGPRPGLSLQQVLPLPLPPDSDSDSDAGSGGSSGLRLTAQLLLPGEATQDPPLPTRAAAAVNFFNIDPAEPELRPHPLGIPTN
5-HT1D, sequence (P28221 whole entry, looked up, species assumed): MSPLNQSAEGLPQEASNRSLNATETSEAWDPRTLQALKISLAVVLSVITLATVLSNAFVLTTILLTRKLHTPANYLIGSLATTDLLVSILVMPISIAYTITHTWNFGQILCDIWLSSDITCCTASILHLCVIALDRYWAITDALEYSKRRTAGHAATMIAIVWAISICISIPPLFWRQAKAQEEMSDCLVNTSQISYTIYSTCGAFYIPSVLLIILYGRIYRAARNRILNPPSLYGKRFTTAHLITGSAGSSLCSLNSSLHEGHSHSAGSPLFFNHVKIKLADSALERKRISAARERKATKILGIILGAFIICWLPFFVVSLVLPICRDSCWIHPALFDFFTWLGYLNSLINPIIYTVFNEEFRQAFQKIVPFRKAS

| SMILES | EC50 (5-HT2C [2]) [nM] | Selectivity EC50 5-HT2C/EC50 5-HT2A (5-HT2C [2]; IP assay) | 5-HT2C Rmax (%) (5-HT2C [2]; IP assay) | 5-HT2A Rmax (human 5-HT2A [3]) [%] | EC50 (human 5-HT2A [3]) [nM] | 5-HT2B Rmax (5-HT2B [4]) [%] | 5-HT2A Rmax ± S.E.M (human 5-HT2A [6]) [%] | EC50 (5-HT2C [8]; read-out: 5-HT2C EC50) [nM] | EC50 (5-HT2C [2]; [10]) [nM] | agonist response at 5-HT2A (human 5-HT2A [6]) | agonist response at 5-HT2A (human 5-HT2A [3]) | 5-HT2A-over-5-HT2C selectivity in terms of binding affinity (5-HT2A over 5-HT2C) [fold] | EC50 (5-HT2B [4]; read-out: 5-HT2B EC50) [nM] | other results |
| --- | --- | --- | --- | --- | --- | --- | --- | --- | --- | --- | --- | --- | --- | --- |
| CN[C@]1(c2ccccc2Cl)CCCCC1=O [(S)-ketamine] |  |  |  |  |  |  |  |  |  |  |  |  |  | immobility time in the forced swim test [1]: reduce the immobility time |
| COc1cc(C(F)(F)F)c(OC)cc1CCN [Compound 2C-TFM, 4-trifluoromethyl-2,5-dimethoxyphenethylamine, reference compound] | 3.8 | 0.53 | 100 | 78 | 7.1 | 81 |  |  |  |  |  |  |  | EC50 (5-HT2B [4]; 5-HT2B EC50 (nM)): 81 nM |
| COc1cc(C(F)(F)F)c(OC)cc1[C@@H]1CCCNC1.Cl [Compound 8, (S)-3-(2,5-Dimethoxy-4-(trifluoromethyl)phenyl)piperidine hydrochloride] |  |  |  | 74 |  |  | 47 ± 3 | > 50000 |  |  |  |  |  | Ki (a1A): > 10000 nM; Ki (5-HT2C [5]): 42 nM; Ki (a2C): > 10000 nM; 5-HT2B Rmax (5-HT2B [7]; % of the Rmax of 5-HT): 84%; EC50 (5-HT2B [7]; agonist potency): 280 nM; Ki (a2B): 820 nM; Ki (5-HT6): 623 nM; Ki (a1B): > 10000 nM; Ki (5-HT2B [9]): 85 nM; Ki (5-HT1D): 663 nM; Ki (5-HT1e): 762 nM; Ki (5-HT1A): 330 nM; Ki (a2A): 1400 nM; Ki (5-HT7): 2360 nM |
| COc1cc(C2CC[C@@H](c3ccccc3OC)NC2)c(OC)cc1Br (some centres unmarked) [Compound 8a, reference compound] |  | 0.07 | 80 | 94 | 2300 | 20 | 87 ± 4 | 2000 | 170 | evoked significant agonist responses | evoked significant agonist responses | 13 | 770 | Selectivity EC50 5-HT2C/EC50 5-HT2A (5-HT2C [2]; IP assay, listed as compound 8a): selectivity towards 5-HT2C and 5-HT2B over 5-HT2A; Selectivity EC50 5-HT2C/EC50 5-HT2A (human 5-HT2A [6]): 4.1; Selectivity EC50 5-HT2C/EC50 5-HT2A (human 5-HT2A [6]; listed as compound 8a): only slight selectivity towards 5-HT2A over 5-HT2C; EC50 (human 5-HT2A [6]; agonist potency, n = 3-4, read-out: 5-HT2A EC50): 480 nM; 5-HT2C Rmax ± S.E.M (5-HT2C [8]; % of the Rmax of 5-HT): 82 ± 3%; EC50 (5-HT2C [8]; read-out: 5-HT2C [pEC50 ± S.E.M.] (converted)): 1950 nM |
| COc1cc([C@H]2CC[C@H](c3ccccc3OC)NC2)c(OC)cc1Br [Compound 8b, reference compound] |  |  |  |  | > 100000 |  |  |  | > 100000 | no agonist response | no agonist response | 27 | > 100000 | 5-HT2C agonist activity (n.a./w.a.) (5-HT2C [2]; IP assay, up to 100 μM (Table 4)): w.a.; 5-HT2A agonist activity (n.a./w.a.) (human 5-HT2A [6]; tested up to 50 μM): w.a. [@ 10-50 μM]; 5-HT2A agonist activity (n.a./w.a.) (human 5-HT2A [3]; up to 100 μM (Table 4)): n.a. (no agonist activity: the compound did not evoke significant responses at concentrations up to 100 μM); 5-HT2C agonist activity (n.a./w.a.) (5-HT2C [8]; tested up to 50 μM): w.a. [@ 10-50 μM]; 5-HT2B agonist activity (n.a./w.a.) (5-HT2B [4]; up to 100 μM (Table 4)): n.a. (no agonist activity: the compound did not evoke significant responses at concentrations up to 100 μM) |
| COc1cc(CCNCc2ccccc2O)c(OC)cc1C#N [Compound 25CN-NBOH, 4-(2-((2-hydroxybenzyl)amino)ethyl)-2,5-dimethoxybenzonitrile] | 27 |  | 84 |  |  |  |  |  |  |  |  |  |  |  |
